14 compounds from patent US10538555B2, “Macrocyclic inhibitors of the PD-1/PD-L1 and CD80(B7-1)/PD-L1 protein/protein interactions” (BRISTOL-MYERS SQUIBB COMPANY, priority 2014, dated 2020) can be followed below.

*1 amine or outer side, *2 acyl side, *3 side chain or, on linkers, in order; H or OH if unused. Where a SMILES comes first, the peptide text is derived from it. Bridges are numbered along the chain shown (N, C = ends). [ ]: non-standard residue; d: D form. ξ: configuration not given here. Trp(1-CH2COOH) = N[C@@H](Cc1cn(CC(=O)O)c2ccccc12)C(=O)O; Phe(3,4,5-F3) = N[C@@H](Cc1cc(F)c(F)c(F)c1)C(=O)O; Phe(3,4-F2) = N[C@@H](Cc1ccc(F)c(F)c1)C(=O)O; NMePhe(4-F) = CN[C@@H](Cc1ccc(F)cc1)C(=O)O; d(cisHyp) = O=C(O)[C@H]1C[C@@H](O)CN1; NMeY = CN[C@@H](Cc1ccc(O)cc1)C(=O)O; Hyp = O=C(O)[C@@H]1C[C@@H](O)CN1; NMeF = CN[C@@H](Cc1ccccc1)C(=O)O; X1 = O=C([C@H]1COCCN1[*:1])[*:2]; dNMeF = CN[C@H](Cc1ccccc1)C(=O)O; dHyp = O=C(O)[C@H]1C[C@H](O)CN1; NMehSer = CN[C@@H](CCO)C(=O)O; NMeNle = CCCC[C@H](NC)C(=O)O; dNle = CCCC[C@@H](N)C(=O)O; dPip = O=C(O)[C@H]1CCCCN1; hSer = N[C@@H](CCO)C(=O)O; NMeA = CN[C@@H](C)C(=O)O; Orn = NCCC[C@H](N)C(=O)O; Dab = NCC[C@H](N)C(=O)O; Dap = NC[C@H](N)C(=O)O; ξC = NC(CS)C(=O)O

For the test, the target named is T1, Human PD-L1/PD-1 (Homo sapiens, UniProt Q9NZQ7).
T1 construct: TVMV protease cleavage site (C); made in house; host or cells: HEK293T cells
T1 sequence (Q9NZQ7 with tags, fused parts or gaps): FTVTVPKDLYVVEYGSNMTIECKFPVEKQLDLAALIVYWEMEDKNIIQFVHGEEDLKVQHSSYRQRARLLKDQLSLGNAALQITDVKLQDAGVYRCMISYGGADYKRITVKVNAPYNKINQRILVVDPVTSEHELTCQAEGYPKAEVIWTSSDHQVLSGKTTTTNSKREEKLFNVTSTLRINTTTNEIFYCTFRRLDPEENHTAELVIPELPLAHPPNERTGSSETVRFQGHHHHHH
The experiment in a line: HTRF Human PD-L1/PD-1 binding assay (PD-1-Ig/PD-L1-His). The note with it: PD-L1-His 10 nM, PD-1-Ig 20 nM; class symbol; read-out: HTRF Human PD-L1/PD-1 Binding Assay IC50 Range. In short, it runs like this: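 Inhibitors were preincubated 15 min with human PD-L1(18-239)-His (10 nM final), then PD-1(25-167)-Ig (20 nM final) was added for 15 min in dPBS/0.1% BSA/0.05% Tween-20. Eu-cryptate anti-Ig (1 nM) and APC anti-His (20 nM) were added; 665/620 nm ratio read after 30 min.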
In general terms: TR-FRET usually uses a lanthanide donor and a delayed reading to cut background.
Regarding `CCCC[C@H]1C(=O)N(C)[C@@H](CCCC)C(=O)N[C@@H](CC(C)C)C(=O)N[C@H](C(=O)NCC(N)=O)CSCC(=O)N[C@@H](Cc2ccc(OC)cc2)C(=O)N(C)[C@@H](C)C(=O)N[C@@H](CC(N)=O)C(=O)N2CCC[C@H]2C(=O)N[C@@H](CO)C(=O)N[C@@H](CCC(N)=O)C(=O)N2C[C@H](O)C[C@H]2C(=O)N[C@@H](Cc2c[nH]c3ccccc23)C(=O)N[C@@H](CO)C(=O)N[C@@H](Cc2c[nH]c3ccccc23)C(=O)N1C` [Example 7136] ({CH2CO}-Y(Me)[NMeA]NPSQ[Hyp]WSW[NMeNle][NMeNle]LCG-NH2; thioether N-14), the IC50 lay within 1 to 9.9 nM.

On to `CCCC[C@H]1C(=O)N2C[C@H](O)C[C@@H]2C(=O)N[C@@H](CC(=O)O)C(=O)N[C@@H](C(C)C)C(=O)N(C)[C@@H](Cc2ccccc2)C(=O)N[C@@H](CCC(=O)O)C(=O)N2CCC[C@@H]2C(=O)N[C@@H](Cc2c[nH]c3ccccc23)C(=O)N[C@@H](Cc2ccc(O)cc2)C(=O)N[C@@H](CCCN)C(=O)N[C@H](C(=O)NCC(N)=O)CSCC(=O)N[C@@H](Cc2cc(F)c(F)c(F)c2)C(=O)N(C)[C@@H](Cc2ccccc2)C(=O)N1C` [Example 3646] ({CH2CO}-[Phe(3,4,5-F3)][NMeF][NMeNle][d(cisHyp)]DV[NMeF]E[dP]WY[Orn]CG-NH2; thioether N-13), for which the IC50 lay within 10 to 99.9 nM.

For `CCCC[C@H]1C(=O)N(C)[C@@H](CCCC)C(=O)N[C@@H](CN)C(=O)N[C@H](C(=O)NCC(N)=O)CSCC(=O)N[C@@H](Cc2ccc(O)cc2)C(=O)N(C)[C@@H](C)C(=O)N[C@@H](CC(N)=O)C(=O)N2CCC[C@H]2C(=O)N[C@@H](CN)C(=O)N[C@@H](CCC(N)=O)C(=O)N2C[C@H](O)C[C@H]2C(=O)N[C@@H](Cc2c[nH]c3ccccc23)C(=O)N[C@@H](CO)C(=O)N[C@@H](Cc2cn(CC(=O)O)c3ccccc23)C(=O)N1C` [Example 5253] ({CH2CO}-Y[NMeA]NP[Dap]Q[Hyp]WS[Trp(1-CH2COOH)][NMeNle][NMeNle][Dap]CG-NH2; thioether N-14), the IC50 lay within 1 to 9.9 nM.

In the case of `CCCC[C@H]1C(=O)N2C[C@H](O)C[C@@H]2C(=O)N[C@@H](CC(=O)O)C(=O)N[C@@H](C(C)C)C(=O)N(C)[C@@H](Cc2ccccc2)C(=O)N[C@@H](CC(N)=O)C(=O)N2C[C@H](O)C[C@@H]2C(=O)N[C@@H](Cc2c[nH]c3ccccc23)C(=O)N[C@@H](Cc2ccc(O)cc2)C(=O)N[C@@H](CCN)C(=O)N[C@H](C(=O)NCC(N)=O)CSCC(=O)N[C@@H](Cc2cc(F)c(F)c(F)c2)C(=O)N(C)[C@@H](Cc2ccccc2)C(=O)N1C` [Example 9364] ({CH2CO}-[Phe(3,4,5-F3)][NMeF][NMeNle][d(cisHyp)]DV[NMeF]N[d(cisHyp)]WY[Dab]CG-NH2; thioether N-13), the IC50 lay within 10 to 99.9 nM.

With `CCCC[C@H]1C(=O)N(C)[C@@H](CCCC)C(=O)N[C@@H](CCC(=O)O)C(=O)N[C@H](C(=O)NCC(N)=O)CSCC(=O)N[C@@H](Cc2ccc(O)cc2)C(=O)N(C)[C@@H](C)C(=O)N[C@@H](CC(N)=O)C(=O)N2CCC[C@H]2C(=O)N[C@@H](CN)C(=O)N[C@@H](CCC(N)=O)C(=O)N2C[C@H](O)C[C@H]2C(=O)N[C@@H](Cc2c[nH]c3ccccc23)C(=O)N[C@@H](CCC(=O)O)C(=O)N[C@@H](Cc2c[nH]c3ccccc23)C(=O)N1C` [Example 5191] ({CH2CO}-Y[NMeA]NP[Dap]Q[Hyp]WEW[NMeNle][NMeNle]ECG-NH2; thioether N-14), the IC50 fell in the range of 1 to 9.9 nM.

Consider `CCCC[C@H]1C(=O)N2C[C@H](O)C[C@@H]2C(=O)N[C@@H](CC(=O)O)C(=O)N[C@@H](C(C)C)C(=O)N(C)[C@@H](Cc2ccccc2)C(=O)N[C@@H](Cc2ccc(O)cc2)C(=O)N2C[C@H](O)C[C@@H]2C(=O)N[C@@H](Cc2c[nH]c3ccccc23)C(=O)N[C@@H](Cc2ccc(O)cc2)C(=O)N[C@@H](CCCCN)C(=O)N[C@H](C(=O)NCC(N)=O)CSCC(=O)N[C@@H](Cc2cc(F)c(F)c(F)c2)C(=O)N(C)[C@@H](Cc2ccccc2)C(=O)N1C` [Example 9322] ({CH2CO}-[Phe(3,4,5-F3)][NMeF][NMeNle][d(cisHyp)]DV[NMeF]Y[d(cisHyp)]WYKCG-NH2; thioether N-13), for which the IC50 was in the range of 1 to 9.9 nM.

In the case of `CCCC[C@H]1C(=O)N2CCC[C@@H]2C(=O)N[C@@H](CC(=O)O)C(=O)N[C@@H](C(C)C)C(=O)N(C)[C@@H](Cc2ccccc2)C(=O)N[C@@H](CCC(=O)O)C(=O)N2CCOC[C@@H]2C(=O)N[C@@H](Cc2c[nH]c3ccccc23)C(=O)N[C@@H](Cc2ccc(O)cc2)C(=O)N[C@@H](CCCCN)C(=O)N[C@H](C(=O)NCC(N)=O)CSCC(=O)N[C@@H](Cc2cc(F)c(F)c(F)c2)C(=O)N(C)[C@@H](Cc2ccc(F)cc2)C(=O)N1C` [Example 10598] ({CH2CO}-[Phe(3,4,5-F3)][NMePhe(4-F)][NMeNle][dP]DV[NMeF]E[X1]WYKCG-NH2; thioether N-13), the IC50 lay within 1 to 9.9 nM.

Consider `CCCC[C@H]1C(=O)N2CCC[C@@H]2C(=O)N[C@@H](CO)C(=O)N[C@@H](C(C)C)C(=O)N(C)[C@@H](Cc2ccccc2)C(=O)N[C@@H](CC(=O)O)C(=O)N2CCCC[C@@H]2C(=O)N[C@@H](Cc2c[nH]c3ccccc23)C(=O)N[C@@H](Cc2ccc(O)cc2)C(=O)N[C@@H](CC(C)C)C(=O)N[C@H](C(=O)NCC(N)=O)CSCC(=O)N[C@@H](Cc2cc(F)c(F)c(F)c2)C(=O)N(C)[C@@H](Cc2ccc(F)cc2)C(=O)N1C` [Example 10583] ({CH2CO}-[Phe(3,4,5-F3)][NMePhe(4-F)][NMeNle][dP]SV[NMeF]D[dPip]WYLCG-NH2; thioether N-13), for which the IC50 lay within 1 to 9.9 nM.

In the case of `CCCC[C@H]1C(=O)N2C[C@@H](O)C[C@@H]2C(=O)N[C@@H](CC(=O)O)C(=O)N[C@@H](C(C)C)C(=O)N(C)[C@H](Cc2ccccc2)C(=O)N[C@@H](Cc2ccc(OC)cc2)C(=O)N2C[C@@H](O)C[C@@H]2C(=O)N[C@@H](Cc2c[nH]c3ccccc23)C(=O)N[C@@H](Cc2ccc(O)cc2)C(=O)N[C@@H](CC(C)C)C(=O)N[C@H](C(=O)NCC(N)=O)CSCC(=O)N[C@@H](Cc2ccc(F)c(F)c2)C(=O)N(C)[C@@H](Cc2ccccc2)C(=O)N1C` [Example 9226] ({CH2CO}-[Phe(3,4-F2)][NMeF][NMeNle][dHyp]DV[dNMeF]Y(Me)[dHyp]WYLCG-NH2; thioether N-13), the IC50 lay within 10 to 99.9 nM.

Consider `CCCC[C@H]1NC(=O)[C@H](Cc2c[nH]c3ccccc23)NC(=O)[C@H](CO)NC(=O)[C@H](Cc2c[nH]c3ccccc23)NC(=O)[C@@H]2C[C@@H](O)CN2C(=O)[C@H](CC(C)C)NC(=O)[C@H](Cc2cnc[nH]2)NC(=O)[C@@H]2CCCN2C(=O)[C@H](CC(=O)O)NC(=O)[C@H](C)N(C)C(=O)[C@H](Cc2ccc(O)cc2)NC(=O)CSCC(C(=O)NCC(N)=O)NC(=O)[C@H](CCC(=O)O)NC(=O)[C@H](CCCC)N(C)C1=O` (some centres unmarked) [Example 10132] ({CH2CO}-Y[NMeA]DPHL[Hyp]WSW[dNle][NMeNle]E[ξC]G-NH2; thioether N-14), for which the IC50 is 100 to 990 nM.

As to `COCC[C@H]1C(=O)N2C[C@@H](O)C[C@@H]2C(=O)N[C@@H](CC(=O)O)C(=O)N[C@@H](C(C)C)C(=O)N(C)[C@H](Cc2ccccc2)C(=O)N[C@@H](Cc2ccc(O)cc2)C(=O)N2C[C@@H](O)C[C@@H]2C(=O)N[C@@H](Cc2c[nH]c3ccccc23)C(=O)N[C@@H](Cc2ccc(O)cc2)C(=O)N[C@@H](CCCN)C(=O)N[C@H](C(=O)NCC(N)=O)CSCC(=O)N[C@@H](Cc2ccc(F)c(F)c2)C(=O)N(C)[C@@H](Cc2ccccc2)C(=O)N1C` [Example 9238] ({CH2CO}-[Phe(3,4-F2)][NMeF][NMehSer](Me)[dHyp]DV[dNMeF]Y[dHyp]WY[Orn]CG-NH2; thioether N-13), the IC50 lay within 1 to 9.9 nM.

In the case of `CCCC[C@H]1C(=O)N(C)[C@@H](CCCC)C(=O)N[C@@H](CCCNC(=N)N)C(=O)NC(C(=O)NCC(N)=O)CSCC(=O)N[C@@H](Cc2ccc(O)cc2)C(=O)N(C)[C@@H](C)C(=O)N[C@@H](CC(N)=O)C(=O)N2CCC[C@H]2C(=O)N[C@@H](CO)C(=O)N[C@@H](CCO)C(=O)N2CCC[C@H]2C(=O)N[C@@H](Cc2c[nH]c3ccccc23)C(=O)N[C@@H](CCO)C(=O)N[C@@H](Cc2c[nH]c3ccccc23)C(=O)N1C` (some centres unmarked) [Example 10051] ({CH2CO}-Y[NMeA]NPS[hSer]PW[hSer]W[NMeNle][NMeNle]R[ξC]G-NH2; thioether N-14), the IC50 fell in the range of 1 to 9.9 nM.

As for `CCCC[C@H]1C(=O)N2C[C@@H](O)C[C@@H]2C(=O)N[C@@H](CC(=O)O)C(=O)N[C@@H](C(C)C)C(=O)N(C)[C@@H](Cc2ccccc2)C(=O)N[C@@H](CCC(=O)O)C(=O)N2CCCC[C@@H]2C(=O)N[C@@H](Cc2c[nH]c3ccccc23)C(=O)N[C@@H](Cc2ccc(O)cc2)C(=O)N[C@@H](CCCCN)C(=O)N[C@H](C(=O)NCC(N)=O)CSCC(=O)N[C@@H](Cc2cc(F)c(F)c(F)c2)C(=O)N(C)[C@@H](Cc2ccc(F)cc2)C(=O)N1C` [Example 10560] ({CH2CO}-[Phe(3,4,5-F3)][NMePhe(4-F)][NMeNle][dHyp]DV[NMeF]E[dPip]WYKCG-NH2; thioether N-13), the IC50 lay in the range of 1 to 9.9 nM.

As for `CCCC[C@H]1C(=O)N2CCC[C@@H]2C(=O)N[C@@H](CC(=O)O)C(=O)N[C@@H](C(C)C)C(=O)N(C)[C@@H](Cc2ccccc2)C(=O)N[C@@H](CCN)C(=O)N2CCOC[C@@H]2C(=O)N[C@@H](Cc2c[nH]c3ccccc23)C(=O)N[C@@H](Cc2ccc(O)cc2)C(=O)N[C@@H](CC(C)C)C(=O)N[C@H](C(=O)NCC(N)=O)CSCC(=O)N[C@@H](Cc2cc(F)c(F)c(F)c2)C(=O)N(C)[C@@H](Cc2ccc(O)cc2)C(=O)N1C` [Example 10622] ({CH2CO}-[Phe(3,4,5-F3)][NMeY][NMeNle][dP]DV[NMeF][Dab][X1]WYLCG-NH2; thioether N-13), the IC50 was in the range of 10 to 99.9 nM.
